We go through 6 compounds from patent US12002595B2, “Separation of metal ions by liquid-liquid extraction” (priority 2016, dated 2024).

Each structure is given as a SMILES string.

Test [1] can be described thus: Stability constant (log β) of ligand-metal complexes. The format is binding. The following applies: 25.0° C., 0.1 M KCl. How it is done: Solution Thermodynamics. All titrant solutions were degassed by boiling for 1 h while being purged under Ar. Carbonate-free 0.1 M KOH was prepared from concentrate (J. T Baker Dilut-It) and was standardized by titrating against 0.1 M potassium hydrogen phthalate (99.95%, Sigma Aldrich). Solutions of 0.1 M HCl were similarly prepared and were standardized by titrating against TRIS (99.9%, J. T. Baker). The glass electrode (Metrohm—Micro Combi—response to [H+]) used for the pH measurements was calibrated at 25.0° C. and at an ionic strength of 0.1 M (KCl) before each potentiometric or spectrophotometric titration. The calibration data were analyzed using the program GLEE (Gans & O'Sullivan, Talanta, 2000, 51 (1): 33-37) to refine for the E° and slope. All thermodynamic measurements were conducted at 25.0° C., in 0.1 M KCl supporting electrolyte under positive Ar gas pressure. The automated titration system was controlled by an 867 pH Module (Metrohm). Two-milliliter Dosino 800 burets (Metrohm) dosed the titrant (0.1 M KOH or 0.1 M HCl) into the thermostated titration vessel (5-90 mL). UV-visible spectra were acquired with an Ocean Optics USB4000-UV-vis spectrometer equipped with a TP-300 dip probe (Ocean Optics; path length of 10 mm), fiber optics and a DH-2000 light source (deuterium and halogen lamps). The fully automated titration system and the UV-vis spectrophotometer were coordinated by LBNL titration system, a computer program developed in house.
Incremental Spectrophotometric Titrations. This method was used to determine the protonation constants of 3,4,3-LI(CAM) as well as the stability constants of its complexes formed with Eu(III), Zr(IV) and ^232Th(IV). The experimental titration setup is similar to previously described systems (Sturzbecher-Hoehne, et al., Radiochimica Acta., 2013, 101 (6): 359-366). For the 3,4,3-LI(CAM) protonation (and Eu(III)-3,4,3-LI(CAM) complexes), titrations were performed with an initial concentration of 50 μM of 3,4,3-LI(CAM) (and 50 μM of Eu(III)) resulting in absorbance values included between 0 and 1.0 throughout the titration. Typically, 9 mL of a sample containing 3,4,3-LI(CAM) (and Eu(III)) and the supporting electrolyte (KCl/HCl) were incrementally perturbed by addition of 0.025 mL of carbonate-free 0.1 M KOH followed by a time delay of 80 s. Buffering of the solution was ensured by the addition of 10 mM of HEPES, 10 mM of CHES and 10 mM of MES. Between 130 and 250 data points were collected per titration, each data point including a pH measurement and a UV-Vis spectrum (250-450 nm) over the pH range 1.5 to 12.0. All spectra were corrected for dilution before data fitting. The entire procedure (electrode calibrate, titration and data treatment) was performed independently five times for the protonation constants and four times for the Eu(III)-3,4,3-LI(CAM) complexes. For the Zr(IV) and Th(IV) complexes, titrations were performed similarly but in the presence of DTPA to avoid the formation of metal hydroxides at low pH, before the uptake by 3,4,3-LI(CAM). For each metal, three titrations were performed independently in the presence of 1.1 to 40 equivalents of DTPA.
Data Treatment. […] All metal and chelator concentrations were held at estimated values determined from the volume of standardized stock solutions. All species formed with 3,4,3-LI(CAM) were considered to have significant absorbance to be observed in the UV-vis spectra and were therefore included in the refinement process. […]

Test [2] can be described thus: Extraction by HDEHP with 1 mM 343HOPO in 0.1 M HNO3 and 1.9 M NaNO3. Conditions: chelator in place of 343HOPO; acidic conditions. How it is done:
Aqueous phase: 1 mM 343HOPO in 0.1 M HNO3 and 1.9 M NaNO3. Organic phase: HDEHP in kerosene.
A log scale is used for clarity. See FIGS. 58A and 58B for results as a function of the phase ratio.
(§1) For Example 20—Example 24, pH measurements were performed with a glass electrode (Metrohm-Micro Combi-response to [H+]) calibrated at 25.0° C. using three NIST standards. Extraction samples were analyzed by liquid scintillation counting (LSC). The distribution coefficient, D(M), of a given metal, M, is defined in Eq. 1, where [M]organic and [M]aqueous are the respective total concentrations of M in the organic and aqueous layers, after extraction. Both concentrations are proportional to the volumetric activity (in Bq/L) determined by LSC. The separation factor, SFM1/M2, between two metals, M1 and M2, and extraction yield were calculated according to Eq. 2 and Eq. 3, respectively.
(§2) In a typical experiment, the solvent (extractant diluted in kerosene) was pre-conditioned by shaking one volume of solvent with three volumes of aqueous phase (typically HNO3) at room temperature for 1 h, thrice. For radioisotope extractions, at least 400 μL aqueous phase (typically containing HNO3, a chelator and a radioisotope) and solvent were placed in air-tight screw-capped plastic tubes, triply-contained, and shaken in a thermoshaker at 300 rpm, 25° C., for at least 30 min. Samples were then centrifuged for 5 min at 3000 rpm and phases separated before analysis. LSC analyses were performed on a Packard Tri-Carb B4430 instrument (Perkin Elmer) after mixing sample aliquots or sample dilution aliquots (10 to 200 μL) with 10 mL of scintillation cocktail (UltimaGold LLT). Samples were counted for at least 6 min and results were background subtracted. The analytical samples contained between 0 and 800,000 CPM. Mixtures of ^249Bk and ^249Cf were analyzed using α/β discrimination and energy windows were set to 0-50 keV for low-energy β particles of ^249Bk and 50-1000 keV for α particles of ^249Cf. ^243Am and ^225Ac samples were counted at secular equilibrium.

The nature of test [3]: Extraction by TODGA from HNO3 in the absence or presence of 1 mM 343HOPO. The procedure:
Organic phase: 0.1 M TODGA in kerosene. Aqueous solvent: HNO3. T=25° C. O/A=1, one contact. Points with arrows are lower limits.
as §1, §2

For test [4] the following is noted: Eu(III), I=2.0 M at 25° C.; cited from earlier work.

Take `O=C(NCCCN(CCCCN(CCCNC(=O)c1cccc(O)c1O)C(=O)c1cccc(O)c1O)C(=O)c1cccc(O)c1O)c1cccc(O)c1O` [3,4,3-LI(CAM)]: the “log β110” value turned out to be 29.7 in test [1] ([Eu-3,4,3-LI(CAM)]^5−), 47.7 in test [1] ([Th-3,4,3-LI(CAM)]^4−) and 57.3 in test [1] ([Zr-3,4,3-LI(CAM)]^4−).
Regarding `O=C(O)CN(CC(=O)O)[C@H]1CCCC[C@@H]1N(CC(=O)O)CC(=O)O` [CDTA, Trans-1,2-cyclohexanediamine-N,N,N′,N′-tetraacetic acid], the “separation between Bk and Cf” value in test [2] was “no separation at all”.
As for `O=C(O)CN(CCN(CC(=O)O)CC(=O)O)CC(=O)O` [EDTA, Ethylenediaminetetraacetic acid], in test [2], the “separation between Bk and Cf” value is “no separation at all”.
With `O=C(O)CN(CC(=O)O)CC(=O)O` [NTA, Nitrilotriacetic acid], the “separation between Bk and Cf” value in test [2] is given as “no separation at all”.
Take `CCCCCCCCN(CCCCCCCC)C(=O)COCC(=O)N(CCCCCCCC)CCCCCCCC` [TODGA, N,N,N′,N′-tetraoctyl diglycolamide, reference compound]: the “distribution factor of uranyl (Du)” value in test [3] (TODGA as extractant) is reported as less than 30. In addition, the “extraction yields of Gd^3+, Lu^3+, UO2^2+, Pu^4+, and Cf^3+ from HNO3” value in test [3] (if HNO3>1 M, no chelator, 0.1 M TODGA in kerosene) is recorded as more than 99.5%.
In the case of `CC(O)C(=O)O` (stereo not drawn) [lactate], the “log β130” value in test [4] is on record as 5.88.
